TGI and GI50 data for 15 compounds are collected here from PubChem BioAssay (NCI).

Where “and” joins values, the source holds several entries; their conditions need not be identical. Identical values can stand only once.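 A five-concentration, 48-hour dose response in 96-well plates underlies each endpoint, interpolated linearly between surrounding concentrations. Abbreviation: GI50, concentration required for 50% inhibition of growth. TGI: total growth inhibition.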

What all share (assay): inhibition of tumour cell growth, NCI panel, 48 h
Test [1] relates to HCT-15 colon.
The test system of test [2] is HCT-116 colon.
Test [3] relates to UACC-62 melanoma.
For test [4], the system named is SN12C renal.
Test [5] has as its system MOLT-4 leukemia.
Test [6] has as its system SF-295 CNS.
Test [7] relates to OVCAR-8 ovarian.
Test [8] relates to NCI-H226 lung.

For the compound `Nc1ccc(C(=O)N/C(=C\c2ccc3c(c2)OCO3)c2nc3ccc4c(c3[nH]2)C(=O)c2ccccc2C4=O)cc1`, the TGI in test [1], in test [2], in test [3], in test [4], in test [5] and in test [6] was above 100 µM throughout. Besides, in test [7], the TGI is above 100 µM.

For `Cc1ccc(/C=C2\CN(C(=O)CCN3CCC(=NO)CC3)C/C(=C\c3ccc(C)cc3)C2=O)cc1`, the GI50 is 1.83 µM in test [8] and 0.363 µM in test [2]. The TGI in test [8] was found to be 3.86 µM; in test [2], 1.28 µM.

In the case of `CCOc1c(Cc2ccccc2)c(=O)n2c3ccccc3n3c(=O)n(C)c(=O)c1c23`, the TGI in test [1], in test [2], in test [3], in test [4], in test [5] and in test [6] was above 100 µM each time. For the same compound, the TGI in test [7] is above 100 µM.

Take `CCCN(CCC)c1c([N+](=O)[O-])cc(C(N)=O)cc1[N+](=O)[O-]`: the TGI in test [1], in test [8], in test [2], in test [4], in test [5] and in test [6] was above 100 µM in each case. In test [7], this compound returned a TGI above 100 µM.

Consider `COc1cccc(C2N3CCCCC3[C@@H]3c4[nH]c5ccccc5c4CCN23)c1OC` (stereo partly drawn), for which the TGI in test [1] was 30.8 µM; in test [2], 31.1 µM; in test [3], 24 µM; in test [4], 31 µM; in test [5] it was 36.6 µM; in test [6], 31.6 µM. Further, in test [7], the TGI was 30.8 µM.

For the compound `O=[P+](O)c1cc2c3ccccc3ccc2c2ccccc12`, the TGI in test [8] is 94.2 µM; in test [2], above 100 µM; in test [3], above 100 µM; in test [4] it was above 100 µM; in test [5], above 100 µM; in test [6], above 100 µM. Besides, the TGI in test [7] is above 100 µM.

In the case of `O=C1/C(=C/c2ccccc2)CN(C(=O)Oc2ccccc2)C/C1=C\c1ccccc1`, the TGI in test [1] is above 100 µM; in test [2] it was 28.7 µM; in test [3], above 100 µM; in test [4] it was above 100 µM; in test [6], 34.1 µM; in test [7], above 100 µM.

For `COc1ccc(CN[C@H]2CCc3cc(OC)c(OC)c(OC)c3-c3ccc(SC)c(=O)cc32)c(OC)c1OC`, the TGI in test [1] was 0.0938 µM; in test [8] it was 0.0736 µM and 0.0509 µM; in test [2], 0.0597 µM and 0.133 µM; in test [3] it was 19.1 µM; in test [4], 59.8 µM; in test [5], above 100 µM. Moreover, the TGI in test [6] was above 100 µM. Moreover, the GI50 was 0.0172 µM in test [8], below 0.01 µM in test [2] and 0.0167 µM in test [6].

Consider `CC(C)C(NCc1c2ccccc2nc2ccccc12)C(=O)O` (stereo not drawn), for which the TGI is above 100 µM in test [1]; above 100 µM in test [8]; above 100 µM in test [2]; above 100 µM in test [4]; 69.1 µM in test [5]; above 100 µM in test [6]. Moreover, the TGI in test [7] was above 100 µM.

In the case of `O=C1/C(=C/c2ccc(Cl)cc2)COc2ccc(Br)cc21`, the TGI in test [2], in test [5], in test [6] and in test [7] was above 100 µM in each case.

With `CC(C)S(=O)(=O)ON1C(=O)c2ccc([N+](=O)[O-])cc2C1=O`, the TGI in test [1], in test [8], in test [2], in test [3], in test [4] and in test [6] was above 100 µM throughout. The compound also yielded a TGI in test [7] above 100 µM.

With `COc1ccccc1NC(=O)NS(=O)(=O)c1ccccc1`, the TGI in test [8], in test [2], in test [4], in test [6] and in test [7] was above 100 µM throughout.

Turning to `C/C(CC(=O)Nc1cc(Cl)c(Cl)cc1Cl)=N\NS(=O)(=O)c1ccc(C)cc1`, the TGI was 53 µM in test [8]; 59.6 µM in test [2]; 75.9 µM in test [3]; above 100 µM in test [5]; above 100 µM in test [6]; above 100 µM in test [7].

As for `NC(=O)COc1ccc(Br)cc1Br`, the TGI in test [1], in test [8], in test [2], in test [4], in test [5] and in test [6] was above 100 µM each time. Moreover, the TGI in test [7] was above 100 µM.

As for `CC1(C)CC(=O)C=C(NC(=O)c2ccccc2)C1`, the TGI in test [1], in test [2], in test [3], in test [4], in test [5] and in test [6] was above 100 µM throughout. Besides, the TGI in test [7] was above 100 µM.
